Experimental data published in article PMC11350758, “Development of Xanthoangelol-Derived Compounds with Membrane-Disrupting Effects against Gram-Positive Bacteria” (Antibiotics, 2024).
≈ marks a conversion by molar mass, not a printed value.

What was measured:
[1] = tested on: Staphylococcus aureus ATCC43300, methicillin-resistant strain; assay: microbe, parasite or virus in culture; type: cell-based; conditions: ATCC 43300 / MRSA; Staphylococcus aureus ATCC43300 (MRSA); read-out: MIC S. a 43300
Outline: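 Micro broth dilution (CLSI): TSB medium, twofold compound series, equal-volume bacterial suspension at 10^6 CFU/mL, incubation 37 °C for 24 h.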

red blood cells = assay: Hemolysis assay; type: cell-based, Sheep; conditions: concentration required to lyse 50% of red blood cells; 37 °C, 1 h
Experimental: All target derivatives were assessed for their in vitro antibacterial activities using a broth microdilution assay to test their minimum inhibitory concentrations (MICs) against six Gram-positive strains (S. aureus ATCC31007, S. aureus ATCC25923, S. aureus ATCC43300, E. faecalis ATCC29212, B. subtilis ATCC9372, and S. epidermidis ATCC12228) and four Gram-negative strains (A. baumannii ATCC19606, K. pneumonia ATCC10031, E. coli ATCC25922, and P. aeruginosa ATCC27853). These compounds were also evaluated for their hemolytic activities and membrane selectivity by determining their HC50 (the concentration required to lyse 50% of red blood cells) and SI (HC50/MICs) values, respectively, and vancomycin was used as the positive drug.
To further detect the hemolytic toxicity and therapeutic potential of these derivatives, we proceeded to examine the hemolytic activities and membrane selectivity of these derivatives. The HC50 value was defined as the concentration needed for a compound to lyse 50% of red blood cells, and it is often used to evaluate the hemolytic toxicity to eukaryotic cells. […] The selectivity index (SI) was calculated by HC50/MICs of S. aureus ATCC43300 and was used to assess the potency and safety of the compounds. […] Thus, compound 9h was selected as a representative molecule for the in-depth in vitro and in vivo studies.
Sheep blood was used to isolate red blood cells (RBCs), which were then resuspended in 1× PBS (5%). The compounds were dissolved in PBS to give an initial concentration of 5.12 mg/mL, compound solution (100 μL) was added to the first well of a 96-well plate, two-fold serial dilutions of compounds were prepared in 96-well plates, and then 150 μL of 5% RBC suspension was added to each well. This was followed by incubation at 37 °C for 1 h. After incubation, the plate was centrifuged (3500 rpm, 5 min), and 100 μL of supernatant solution from each well was carefully pipetted into a new plate. The absorbance values were measured at 540 nm. Erythrocyte hemolysis rate = (Absorbancecompound – Absorbance negative control)/(Absorbance1% Triton X-100 − Absorbance negative control) × 100%. All biological experiments were repeated three times.

S. aureus ATCC43300 = assay: Resistance development assay (serial passage); type: cell-based; conditions: serial passage at 1/2 MIC for 20 days
Experimental: The rapid increase in bacterial resistance to antibiotics is a major challenge in clinical treatment, and in order to assess the drug resistance development for compound 9h, we performed a drug resistance assay against S. aureus ATCC43300. Norfloxacin was selected as the positive control. The S. aureus cells were incubated with sub-MIC (1/2 MIC) concentration of compound 9h and were serially passaged for a duration of 20 days.
Resistance was defined as a more than 4-fold increase in the tested compound in MIC when compared to the beginning value. Briefly, S. aureus ATCC43300 was cultured (37 °C, 200 rpm) in MHB broth for 5 h and diluted to 1 × 10^6 CFU/mL. Then, the bacteria were cultured with compound 9h at a sub-MIC concentration (1/2 MIC) for 18 h. The MICs were determined according to this method for consecutive 20 days. All biological experiments were repeated three times.

CC(=O)c1c(OCCCNCCCN2CCN(C)CC2)c2c(c3c1OC(C)(CCC=C(C)C)C=C3)OC(C)(CCC=C(C)C)C=C2 (stereo not drawn) [Compound 9h, 1-(2,8-Dimethyl-2,8-bis(4-methylpent-3-en-1-yl)-5-(3-((3-(4-methylpiperazin-1-yl)propyl)amino)propoxy)-2H,8H-pyrano [2,3-f]chromen-6-yl)ethan-1-one]
MIC [1]: 2 µg/mL (≈ 3.15 µM) | HC50 (red blood cells): 98.0 µg/mL | fold increase in MIC (S. aureus ATCC43300): ≤ 4 fold
